Reference: patent US5292737A, “N,N'-bis(sulfonamido)-2-amino-4-iminonaphthalen-1-ones and N,N'-bis(amido)-2-amino-4-iminonaphthalen-1-ones” (Sphinx Pharmaceuticals Corporation, priority 1992, dated 1994)
Read-outs that look alike come from different tables or passages of the source.

What was measured:
Assay type in all cases: biochemical
[1] = molecular target: cAMP dependent protein kinase (PKA); test: cAMP Dependent Protein Kinase (PKA) Assay; settings: for IC50: catalytic subunit of PKA; for effect on PKA activity: result in words
Method: Compounds found to be inhibitors of protein kinase C were tested for inhibitory activity against cAMP dependent protein kinase (PKA). This enzyme, like protein kinase C, plays an important role in cell-cell communication and is activated by a second messenger, cAMP. Secondary screening against PKA is useful for ascertaining the selectivity of the compounds of the invention.
The catalytic subunit of PKA (Sigma Chemical Company, St. Louis, Mo.) was mixed with buffer before addition of the inhibitor in dimethylsulfoxide (DMSO). Potential inhibitor compounds were added to the assay in dimethylsulfoxide at two concentrations to give final inhibitor concentrations of 30 and 150 μM, respectively. The assay was started by the addition of ^32 P-ATP and the reaction was allowed to proceed for 10 min before stopping with 25% trichloroacetic acid (TCA) and 1.0 mg/ml bovine serum albumin (BSA). Phosphorylated protein was then isolated by filtration and the radioactivity was counted by a beta scintillation counter.

PKC isoenzyme δ = molecular target: T1, PKC isoenzyme δ (Homo sapiens, UniProt Q05655); test: Protein kinase C inhibition assay, PKC isoenzyme δ
T1 construct: made in house; host or cells: baculovirus-insect cell expression system
Method: (§1) A protein kinase C (PKC) assay is designed to duplicate the in vivo conditions required for protein kinase C function. Therefore, pH, salt and cofactor concentrations are similar to physiologic levels. Either lysine rich histone H1 (H1) or Myelin basic protein (Mbp) are used in the assay as the phosphorylation acceptor-protein because they are readily available and serve as good substrates for protein kinase C. Enzyme was prepared from baculovirus-insect cell expression systems.
(§2) In the screening assay, phosphatidylserine (PS) and DAG were co-sonicated to form unilamellar and multilamellar vesicles. The concentration of lipids in the assay were suboptimal to maximize the detection potential of the assay for inhibitors or activators. Potential effector compounds were added to the assay in dimethylsulfoxide at four concentrations to give final inhibitor concentrations of 1, 10, 50, and 150 μM, respectively.
(§3) The assay was started with the addition of enzyme and stopped after 10 min by the addition of 25% trichloroacetic acid (TCA) and 1.0 mg/ml bovine serum albumin (BSA). The radioactive histone product was retained and washed on glass fiber filters that allow the unreacted P-ATP to pass through. The amount of phosphorylation was determined by measuring radioactivity with a scintillation counter. Controls were included in every assay to measure background activity in the absence of enzyme, activity in the absence of lipids, and the maximum enzyme activity with saturating levels of the activator lipids.
(§4) Results of the protein kinase C assay are shown in Table 4 in columns labeled α, βII, γ, δ, ε, and .zeta. which represent various PKC isoenzymes. Results are show as IC50, which is the concentration of test compound needed to inhibit 50% of the protein kinase C activity in controls.

PKC isoenzyme ε = molecular target: T2, PKC isoenzyme ε (Homo sapiens, UniProt Q02156); test: Protein kinase C inhibition assay, PKC isoenzyme ε
T2 construct: made in house; host or cells: baculovirus-insect cell expression system
T2 sequence (Q02156 1-737): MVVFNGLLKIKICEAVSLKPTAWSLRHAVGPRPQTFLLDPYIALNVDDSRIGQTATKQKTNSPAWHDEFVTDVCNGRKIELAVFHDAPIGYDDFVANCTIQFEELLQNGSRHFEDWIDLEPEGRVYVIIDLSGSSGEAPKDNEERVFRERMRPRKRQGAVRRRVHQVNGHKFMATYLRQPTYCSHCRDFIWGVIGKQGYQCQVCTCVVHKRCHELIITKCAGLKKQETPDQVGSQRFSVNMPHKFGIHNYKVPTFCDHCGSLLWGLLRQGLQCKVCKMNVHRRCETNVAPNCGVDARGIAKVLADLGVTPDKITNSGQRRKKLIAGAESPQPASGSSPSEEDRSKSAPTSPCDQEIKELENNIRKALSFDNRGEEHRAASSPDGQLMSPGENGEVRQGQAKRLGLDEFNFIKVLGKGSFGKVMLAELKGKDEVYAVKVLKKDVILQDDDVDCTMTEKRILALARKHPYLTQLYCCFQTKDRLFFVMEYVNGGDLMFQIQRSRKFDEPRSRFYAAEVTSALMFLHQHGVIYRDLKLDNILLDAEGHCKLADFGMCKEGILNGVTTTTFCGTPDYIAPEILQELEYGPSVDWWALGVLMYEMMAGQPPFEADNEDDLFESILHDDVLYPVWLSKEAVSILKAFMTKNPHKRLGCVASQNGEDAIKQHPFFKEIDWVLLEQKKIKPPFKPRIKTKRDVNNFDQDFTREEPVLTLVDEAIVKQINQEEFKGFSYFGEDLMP
Method: as §1, §2, §3, §4

T1 sequence (Q05655 whole entry): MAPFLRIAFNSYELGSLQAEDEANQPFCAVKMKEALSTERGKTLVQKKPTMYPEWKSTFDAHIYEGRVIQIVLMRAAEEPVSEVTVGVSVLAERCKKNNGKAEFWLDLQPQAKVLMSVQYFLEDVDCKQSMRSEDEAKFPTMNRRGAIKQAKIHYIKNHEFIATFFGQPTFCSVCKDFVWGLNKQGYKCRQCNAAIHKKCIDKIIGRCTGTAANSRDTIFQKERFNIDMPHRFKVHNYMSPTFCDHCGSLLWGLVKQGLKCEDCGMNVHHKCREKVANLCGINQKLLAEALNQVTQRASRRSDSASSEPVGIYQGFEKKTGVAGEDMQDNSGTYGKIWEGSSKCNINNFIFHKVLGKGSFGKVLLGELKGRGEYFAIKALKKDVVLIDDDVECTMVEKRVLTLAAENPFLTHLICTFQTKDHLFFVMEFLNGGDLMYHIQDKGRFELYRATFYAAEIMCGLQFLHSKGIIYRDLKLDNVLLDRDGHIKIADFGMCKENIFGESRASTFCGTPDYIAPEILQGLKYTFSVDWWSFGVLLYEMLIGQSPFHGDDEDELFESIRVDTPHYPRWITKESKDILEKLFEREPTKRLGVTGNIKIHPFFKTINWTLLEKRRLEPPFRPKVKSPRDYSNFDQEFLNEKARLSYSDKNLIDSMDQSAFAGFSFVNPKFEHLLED

Row | SMILES | IC50 [1] | effect on PKA activity [1] | IC50 (PKC isoenzyme δ; read-out: IC50 PKC δ) | IC50 (PKC isoenzyme ε; read-out: IC50 PKC ε) | IC50 (PKC isoenzyme δ; IC50 PKC δ) | IC50 (PKC isoenzyme ε; IC50 PKC ε)
1 | COc1cnc(NS(=O)(=O)c2ccc(N=C3C=C(Nc4ccc(S(=O)(=O)Nc5ncc(OC)cn5)cc4)C(=O)c4ccccc43)cc2)nc1 [Compound 6h] | > 150 µM | did not effect on PKA activity | > 150 µM |  |  | 
2 | Cc1cc(C)nc(NS(=O)(=O)c2cc(N=C3C=C(Nc4ccc(C)c(S(=O)(=O)Nc5cc(C)cc(C)n5)c4)C(=O)c4ccccc43)ccc2C)c1 [Compound 3ag] | > 150 µM | did not effect on PKA activity | 30 µM | 8 µM |  | 
3 | Cc1nnc(NS(=O)(=O)c2ccc(N=C3C=C(Nc4ccc(S(=O)(=O)Nc5nnc(C)s5)cc4)C(=O)c4ccccc43)cc2)s1 [Compound 6e] | 45 µM |  | 35 µM |  |  | 
4 | Cc1nnc(NS(=O)(=O)c2ccc(N=C3C=C(Nc4ccc(S(=O)(=O)Nc5nnc(C)s5)cc4)C(=O)c4ccccc43)cc2)s1 [Compound 3e] | 55 µM |  | 43 µM | > 150 µM |  | 
5 | O=C1C(Nc2ccc(S(=O)(=O)Nc3ccc(Cl)nn3)cc2)=CC(=Nc2ccc(S(=O)(=O)Nc3ccc(Cl)nn3)cc2)c2ccccc21 [Compound 6l] | 89 µM |  | 50 µM | > 150 µM |  | 
6 | O=C1C(Nc2ccc(S(=O)(=O)Nc3ccccn3)cc2)=CC(=Nc2ccc(S(=O)(=O)Nc3ccccn3)cc2)c2ccccc21 [Compound 3i] | > 150 µM | did not effect on PKA activity | 37 µM | > 150 µM |  | 
7 | COc1cc(NS(=O)(=O)c2ccc(N=C3C=C(Nc4ccc(S(=O)(=O)Nc5cc(OC)nc(OC)n5)cc4)C(=O)c4ccccc43)cc2)nc(OC)n1 [Compound 3g] | > 150 µM | did not effect on PKA activity | 40 µM | > 150 µM |  | 
8 | Cc1cc(NS(=O)(=O)c2ccc(N=C3C=C(Nc4ccc(S(=O)(=O)Nc5cc(C)nc(C)n5)cc4)C(=O)c4ccccc43)cc2)nc(C)n1 [Compound 3d] | > 150 µM | did not effect on PKA activity | 95 µM | > 150 µM |  | 
9 | COc1cnc(NS(=O)(=O)c2ccc(N=C3C=C(Nc4ccc(S(=O)(=O)Nc5ncc(OC)cn5)cc4)C(=O)c4ccccc43)cc2)nc1 [Compound 3h] | > 150 µM | did not effect on PKA activity | 58 µM | > 150 µM |  | 
10 | O=C1C(Nc2ccc(S(=O)(=O)NCCNc3ccc([N+](=O)[O-])cn3)cc2)=CC(=Nc2ccc(S(=O)(=O)NCCNc3ccc([N+](=O)[O-])cn3)cc2)c2ccccc21 [Compound 3ac] | > 150 µM | did not effect on PKA activity |  |  | 147 µM | > 150 µM
11 | O=C1C(Nc2ccc(S(=O)(=O)Nc3ccc(Cl)nn3)cc2)=CC(=Nc2ccc(S(=O)(=O)Nc3ccc(Cl)nn3)cc2)c2ccccc21 [Compound 3l] | 98 µM |  | 78 µM | > 150 µM |  | 
12 | COc1cc(NS(=O)(=O)c2ccc(N=C3C=C(Nc4ccc(S(=O)(=O)Nc5cc(OC)nc(OC)n5)cc4)C(=O)c4ccccc43)cc2)nc(OC)n1 [Compound 6g] | 47 µM |  | > 150 µM |  |  | 
13 | COc1ccc(NS(=O)(=O)c2ccc(N=C3C=C(Nc4ccc(S(=O)(=O)Nc5ccc(OC)nn5)cc4)C(=O)c4ccccc43)cc2)nn1 [Compound 3j] | > 150 µM | did not effect on PKA activity | 17 µM | > 150 µM |  | 
14 | Cc1cc(NS(=O)(=O)c2ccc(N=C3C=C(Nc4ccc(S(=O)(=O)Nc5cc(C)nc(C)n5)cc4)C(=O)c4ccccc43)cc2)nc(C)n1 [Compound 6d] | > 150 µM | did not effect on PKA activity | 47 µM |  |  | 
15 | O=C1C(Nc2ccc(S(=O)(=O)NCc3ccccn3)cc2)=CC(=Nc2ccc(S(=O)(=O)NCc3ccccn3)cc2)c2ccccc21 [Compound 3n] | > 150 µM | did not effect on PKA activity | > 150 µM | > 150 µM |  | 
16 | O=C1C(Nc2ccc(S(=O)(=O)Nc3ccccn3)cc2)=CC(=Nc2ccc(S(=O)(=O)Nc3ccccn3)cc2)c2ccccc21 [Compound 6i] | > 150 µM | did not effect on PKA activity | 120 µM |  |  | 
17 | O=C1C(Nc2ccc(S(=O)(=O)NCc3ccccn3)cc2)=CC(=Nc2ccc(S(=O)(=O)NCc3ccccn3)cc2)c2ccccc21 [Compound 6n] | > 150 µM | did not effect on PKA activity |  | 149 µM |  | 
18 | Cc1noc(NS(=O)(=O)c2ccc(N=C3C=C(Nc4ccc(S(=O)(=O)Nc5onc(C)c5C)cc4)C(=O)c4ccccc43)cc2)c1C [Compound 3b] | > 150 µM | did not effect on PKA activity | 31 µM | 143 µM |  | 
19 | Cc1cc(C)nc(NC(=O)c2ccc(N=C3C=C(Nc4ccc(C(=O)Nc5nc(C)cc(C)n5)cc4)C(=O)c4ccccc43)cc2)n1 [Compound 3ai] | > 150 µM | did not effect on PKA activity | > 150 µM | > 105 µM |  | 
20 | COc1cc(NS(=O)(=O)c2ccc(N=C3C=C(Nc4ccc(S(=O)(=O)Nc5cc(OC)cc(OC)c5)cc4)C(=O)c4ccccc43)cc2)cc(OC)c1 [Compound 6af] |  |  |  | > 150 µM |  | 
21 | COc1cc(NS(=O)(=O)c2ccc(N=C3C=C(Nc4ccc(S(=O)(=O)Nc5cc(OC)cc(OC)c5)cc4)C(=O)c4ccccc43)cc2)cc(OC)c1 [Compound 3af] | 62 µM |  | > 150 µM | 111 µM |  | 
22 | O=C1C(Nc2ccc(S(=O)(=O)Nc3cnc4ccccc4n3)cc2)=CC(=Nc2ccc(S(=O)(=O)Nc3cnc4ccccc4n3)cc2)c2ccccc21 [Compound 6m] | 145 µM |  | 37 µM | 141 µM |  | 
23 | Cc1ccnc(NS(=O)(=O)c2ccc(N=C3C=C(Nc4ccc(S(=O)(=O)Nc5nccc(C)n5)cc4)C(=O)c4ccccc43)cc2)n1 [Compound 6f] | 46 µM |  | 43 µM |  |  | 
24 | COc1ccc(NS(=O)(=O)c2ccc(N=C3C=C(Nc4ccc(S(=O)(=O)Nc5ccc(OC)nn5)cc4)C(=O)c4ccccc43)cc2)nn1 [Compound 6j] | > 150 µM | did not effect on PKA activity | 113 µM |  |  | 
25 | Cc1ccnc(NS(=O)(=O)c2ccc(N=C3C=C(Nc4ccc(S(=O)(=O)Nc5nccc(C)n5)cc4)C(=O)c4ccccc43)cc2)n1 [Compound 3f] | 48 µM |  | 86 µM | > 150 µM |  | 
26 | Cc1cc(C)nc(NC(=O)c2ccc(N=C3C=C(Nc4ccc(C(=O)Nc5cc(C)cc(C)n5)cc4)C(=O)c4ccccc43)cc2)c1 [Compound 3ah] |  |  | > 150 µM | > 150 µM |  | 
27 | Cc1cc(C)nc(NS(=O)(=O)c2ccc(N=C3C=C(Nc4ccc(S(=O)(=O)Nc5nc(C)cc(C)n5)cc4)C(=O)c4ccccc43)cc2)n1 [Compound 6c] | 48 µM |  | 10 µM | 15 µM |  | 
28 | Cc1cc(C)nc(NS(=O)(=O)c2cc(N=C3C=C(Nc4ccc(C)c(S(=O)(=O)Nc5cc(C)cc(C)n5)c4)C(=O)c4ccccc43)ccc2C)c1 [Compound 6ag] |  | did not effect on PKA activity | 49 µM | 35 µM |  | 
